These results are taken from publication PMC4452343, “Monitoring β-arrestin recruitment via β-lactamase enzyme fragment complementation: purification of peptide E as a low-affinity ligand for mammalian bombesin receptors” (PLoS ONE, 2015).

Assay [1] concerns the target T1, hNMBR (Homo sapiens, UniProt P28336).
T1 construct: expressed in transfected cells; host or cells: CHO cells stably expressing hNMBR
Nature of the assay: NFAT-luciferase reporter assay in CHO cells expressing hNMBR. Format: cell-based. To be noted: 6 h incubation, read-out: EC50, activation of NFAT-promotor. The protocol:
CHO cells stably expressing the GPCR of interest were transiently transfected with NFAT-TA-Luc plasmid (Clontech). Cells were then left overnight before being plated in 96 well plates (20000 cells/well). After an additional 24 h, the synthetic ligands were added to the wells and incubated for 6 h. Following incubation, firefly luciferase assays were performed using the Steady-Glo Luciferase Assay System (Promega). Luminescence was detected with a plate reader (Victor V: Perkin Elmer), according to the manufacturer’s instructions. EC50 values were calculated using Workout 2.0 Data Analysis Software (Perkin Elmer).
In general terms: Reporter assays use an easily measured gene product as a stand-in for the process of interest.

Assay [2] deals with hOX1R. Put plainly: ß-lactamase EFC assay of ß-arrestin recruitment, OX1R reporter cells. In kind it is cell-based, human. The conditions noted are these: 14 h ligand incubation, CCF4/AM substrate. As for the experimental part:
CHO cells stably expressing both the GPCR-omega chimera and ß-arrestin 2-alpha chimera were plated either in 6 well plates or in 96 well plates. After 24 h, ligands or HPLC fractions were added to the wells, and incubated for 14 h. After incubation, cells were washed once in HBSS and then incubated with CCF4/AM substrate for 2 h. ß-lactamase activity was measured either by FACS or with a plate reader (Victor V: Perkin Elmer).
On the technique in general: Arrestin recruitment assays detect the binding of arrestin to an activated receptor.

T1 sequence (P28336 whole entry): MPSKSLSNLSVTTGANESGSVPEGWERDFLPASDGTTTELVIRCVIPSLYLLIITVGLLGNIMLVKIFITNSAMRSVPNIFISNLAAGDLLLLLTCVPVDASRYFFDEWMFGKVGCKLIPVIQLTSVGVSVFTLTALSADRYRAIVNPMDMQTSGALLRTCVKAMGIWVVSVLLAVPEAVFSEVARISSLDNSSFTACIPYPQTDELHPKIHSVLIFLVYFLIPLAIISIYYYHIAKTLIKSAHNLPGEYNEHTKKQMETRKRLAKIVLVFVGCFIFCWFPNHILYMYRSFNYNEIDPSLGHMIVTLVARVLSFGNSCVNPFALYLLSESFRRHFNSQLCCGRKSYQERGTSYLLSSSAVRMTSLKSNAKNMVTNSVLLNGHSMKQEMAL

The term EC50 denotes the concentration at which the effect is half-maximal. `CSCC[C@H](NC(=O)[C@H](Cc1ccccc1)NC(=O)[C@H](Cc1cnc[nH]1)NC(=O)CNC(=O)[C@@H](NC(=O)[C@H](C)NC(=O)[C@H](Cc1c[nH]c2ccccc12)NC(=O)[C@H](CC(C)C)NC(=O)[C@H](CC(N)=O)NC(=O)CN)[C@@H](C)O)C(N)=O` [NMB, neuromedin B]: the EC50 in assay [1] came to 0.16 nM.
On to “orexin-A (QPLPDCCRQKTCSCRLYELLHGAGNHAAGILTL) [unrelated peptide; ligand of orexin type 1 receptor, used as control]”, for which, in assay [2], the “Response in ß-lactamase EFC assay (ß-arrestin recruitment to OX1R)” value is on record as “responded specifically to orexin-A”.
